Measured values as given in US9617267B2, “Compounds and methods for kinase modulation, and indications therefor” (Plexxikon Inc., priority 2009, dated 2017).

Tests used:
[1] = biological target: B-Raf (Homo sapiens (Human), UniProt P15056); test: B-Raf kinase activity biochemical assay (AlphaScreen, biotin-MEK1 phosphorylation); settings: B-Raf
Protocol: (§1) Compounds to be tested are diluted in dimethyl sulfoxide to a concentration of 0.1 mM. These are serially diluted 15 μL into 30 μL of dimethyl sulfoxide seven times in 96 well plates for a total of 8 dilution points, and for each dilution point 1 μL is added to a well of an assay plate. […] The reaction is started with addition of 10 μL of 200 μM ATP (i.e. final 100 μM ATP). After incubation of the kinase reaction for 45 minutes at room temperature, 5 μL/well of Stop Solution is added (25 mM Hepes pH 7.5, 100 mM EDTA, 0.01% BSA with donor beads (Streptavidin coated beads, Perkin Elmer), acceptor beads (Protein A coated, Perkin Elmer), and anti phosphor MEK1/2 antibody (CellSignal), each at final concentration 10 μg/mL). The plates are incubated for 3 hours at room temperature and read on Envision reader (Perkin Elmer). […] The signal vs. compound concentration is used to determine the IC50.

[2] = test system: B-Raf; test: as above; settings: for Biochemical activity ratio B/V600E: ratio of IC50 B-Raf / B-Raf V600E; for Biochemical activity ratio B/C: ratio of IC50 B-Raf / c-Raf-1
Protocol: as §1

[3] = biological target: B-Raf V600E (Homo sapiens (Human), UniProt P15056, V600E); test: B-Raf V600E kinase activity biochemical assay (AlphaScreen, biotin-MEK1 phosphorylation); settings: for IC50: B-Raf V600E; for Biochemical activity ratio V600E/C: ratio of IC50 B-Raf V600E / c-Raf-1
Chain of B-Raf V600E (P15056 whole entry V600E): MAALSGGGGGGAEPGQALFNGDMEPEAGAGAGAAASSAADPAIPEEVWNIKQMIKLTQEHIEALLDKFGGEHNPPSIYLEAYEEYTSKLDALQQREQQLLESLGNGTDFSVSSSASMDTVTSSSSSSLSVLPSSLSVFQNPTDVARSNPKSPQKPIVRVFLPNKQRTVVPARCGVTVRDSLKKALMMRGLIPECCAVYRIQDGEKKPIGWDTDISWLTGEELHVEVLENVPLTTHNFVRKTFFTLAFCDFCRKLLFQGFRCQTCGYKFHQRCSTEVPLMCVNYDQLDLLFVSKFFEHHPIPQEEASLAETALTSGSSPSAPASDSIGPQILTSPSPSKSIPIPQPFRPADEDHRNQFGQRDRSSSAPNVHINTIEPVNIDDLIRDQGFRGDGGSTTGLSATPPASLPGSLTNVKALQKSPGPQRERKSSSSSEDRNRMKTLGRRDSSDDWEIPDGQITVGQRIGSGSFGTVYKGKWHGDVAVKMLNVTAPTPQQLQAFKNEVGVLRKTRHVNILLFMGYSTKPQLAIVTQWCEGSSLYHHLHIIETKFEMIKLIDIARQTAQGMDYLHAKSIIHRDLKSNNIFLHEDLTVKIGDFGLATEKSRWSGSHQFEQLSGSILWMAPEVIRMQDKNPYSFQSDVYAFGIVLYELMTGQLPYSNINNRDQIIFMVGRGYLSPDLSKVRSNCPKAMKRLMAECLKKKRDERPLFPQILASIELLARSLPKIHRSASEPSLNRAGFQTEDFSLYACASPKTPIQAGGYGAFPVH
Protocol: as §1

[4] = biological target: c-Raf-1 (Homo sapiens, UniProt P04049); test: c-Raf-1 kinase activity biochemical assay (AlphaScreen, biotin-MEK1 phosphorylation)
Chain of c-Raf-1 (P04049 whole entry, looked up): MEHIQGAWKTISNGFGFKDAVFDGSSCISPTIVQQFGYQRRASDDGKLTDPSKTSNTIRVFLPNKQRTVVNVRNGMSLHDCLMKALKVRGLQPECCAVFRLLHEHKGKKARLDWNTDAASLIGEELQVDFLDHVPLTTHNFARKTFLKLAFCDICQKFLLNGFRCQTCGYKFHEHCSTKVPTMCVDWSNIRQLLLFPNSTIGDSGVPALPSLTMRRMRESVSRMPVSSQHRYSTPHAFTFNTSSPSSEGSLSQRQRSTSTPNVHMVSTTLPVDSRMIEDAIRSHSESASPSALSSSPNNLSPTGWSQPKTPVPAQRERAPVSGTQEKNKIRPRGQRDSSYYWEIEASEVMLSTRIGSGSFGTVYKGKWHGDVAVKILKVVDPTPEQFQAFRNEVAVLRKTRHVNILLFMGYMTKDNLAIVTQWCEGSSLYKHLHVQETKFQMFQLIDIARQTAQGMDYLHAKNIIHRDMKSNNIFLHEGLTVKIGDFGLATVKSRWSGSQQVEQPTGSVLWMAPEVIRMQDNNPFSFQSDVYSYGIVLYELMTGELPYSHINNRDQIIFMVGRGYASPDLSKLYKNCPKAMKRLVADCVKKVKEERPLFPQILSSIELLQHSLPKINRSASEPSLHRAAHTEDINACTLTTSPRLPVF
Protocol: as §1

[5] = Relative solubility by turbidity threshold concentration in aqueous buffers (pH 1.5, 4.5, 6.8, 7.4); assay type: physicochemical; settings: for turbidity threshold (L, M, H) 1.4: pH 1.4 [sic] (method: SGF pH 1.5); for turbidity threshold (L, M, H) 4.5: pH 4.5 (SIF); for turbidity threshold (L, M, H) 6.8: pH 6.8 (SIF); for turbidity threshold (L, M, H) 7.4: pH 7.4 (HEPES)
Protocol: As an indication of relative solubility, the turbidity of compounds in aqueous solutions is assessed. To assess possible compound properties in different physiological compartments, such as stomach, intestine, and blood, a series of aqueous buffers with varying pH is used. Thus each compound is diluted into four different physiologically relevant buffers and solution turbidity is measured by spectrophotometry.
Compounds are dissolved at a concentration of 25 mM in dimethyl sulfoxide, then serially diluted 1:1 into a 96 well plate, diluting 10 times in pure dimethyl sulfoxide, with the final well of each row a dimethyl sulfoxide blank. In an assay plate, 99 μL of appropriate buffer is added to each well, and 1 μL of each sample dilution is added to the buffer, achieving a range of final total concentrations in aqueous solutions having different pH. The buffers used are Simulated Gastric Fluid (SGF-pH 1.5) 0.5M NaCl, pH 1.5; Simulated Intestinal fluid (SIF-pH 4.5 and pH 6.8) 0.05M NaH2PO4, pH 4.5 and 6.8; and Hepes Buffer (HEPES-pH 7.4) 10 mM HEPES, 150 mM NaCl, pH 7.4. Control compounds pyrene, estriol and propranolol HCl are also assessed. Plates are spun and then mixed for 1 minute, and the absorbance is read using a Tecan Safire II to read wavelengths in the visible range (490, 535, and 650 nm) at four locations per well, reflecting the degree of turbidity present. The average optical density for each wavelength in each well is graphed vs. compound concentration, and the concentration at which the curve crosses a threshold O.D. of 0.01 for each wavelength is reported as the endpoint turbidity assay result. The average of the three wavelengths is used to compare turbidity of compounds. Compounds are considered to have low solubility if the threshold concentration is <31.3 μM, moderate solubility if the threshold concentration is 31.3 μM to 250 μM, and high solubility if the threshold concentration is >250 μm.
The following table indicates the relative solubility (L=low, M=moderate, H=high) based on turbidity threshold concentration at each pH for exemplary compounds according to the invention as indicated: […]

[6] = biological target: CYP2C19 (Homo sapiens (Human), UniProt P33261); test: CYP enzyme inhibition, fluorescent substrate (CEC); settings: read-out: Cyp IC50 2C19; CYP2C19, substrate CEC
Chain of CYP2C19 (P33261 whole entry): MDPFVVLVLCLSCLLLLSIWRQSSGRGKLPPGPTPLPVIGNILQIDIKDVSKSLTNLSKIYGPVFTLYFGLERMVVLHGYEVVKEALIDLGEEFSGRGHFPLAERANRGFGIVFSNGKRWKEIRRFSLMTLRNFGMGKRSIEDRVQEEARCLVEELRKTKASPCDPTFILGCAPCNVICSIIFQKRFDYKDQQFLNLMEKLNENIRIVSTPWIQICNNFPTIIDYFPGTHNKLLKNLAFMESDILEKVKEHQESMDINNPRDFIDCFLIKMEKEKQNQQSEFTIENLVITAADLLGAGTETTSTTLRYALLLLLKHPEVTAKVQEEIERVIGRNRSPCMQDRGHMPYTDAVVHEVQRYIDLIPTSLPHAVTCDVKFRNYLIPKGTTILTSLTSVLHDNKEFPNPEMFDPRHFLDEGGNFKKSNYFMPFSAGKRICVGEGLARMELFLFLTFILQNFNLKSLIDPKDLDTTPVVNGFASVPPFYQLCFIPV
Protocol: CYP (Cytochrome P450) enzymes are the major drug metabolizing enzymes present in the liver. The inhibition of CYP enzyme activity (IC50) for each of CYP1A2, CYP2C19, CYP2C9, CYP2D6, CYP3A4(BFC) and CYP3A4(BQ) is determined for compounds, where inhibition of metabolism of a known substrate leads to a decrease in the fluorescence of the metabolized product. The fluorescence of the product is monitored as a function of compound concentration.
Compounds are dissolved in dimethyl sulfoxide to a concentration of 100 mM. These are diluted 1 μL into 82 μL of acetonitrile. […] These are then serially diluted 1:1 (160 μL to 160 μL co-factor mix) for a total of 10 points. A 10 μL aliquot of this final mixture is dispensed into 384 well assay plates and incubated for 10 minutes at 37° C. […] Assay plates are incubated at 37° C. […] The signal versus compound concentration is used to determine the IC50. The enzymes and substrates for this assay are obtained from BD Biosciences.

Chain of B-Raf (Homo sapiens (Human), UniProt P15056) (P15056 whole entry): as the sequence (P15056 whole entry V600E) above, with E600V counted along it

| IC50 [6] [nM] | Structure (SMILES) | IC50 [1] [µM] | Biochemical activity ratio B/V600E [2] | Biochemical activity ratio B/C [2] | IC50 [3] [µM] | Biochemical activity ratio V600E/C [3] | IC50 [4] [µM] | turbidity threshold (L, M, H) 1.4 [5] | turbidity threshold (L, M, H) 4.5 [5] | turbidity threshold (L, M, H) 6.8 [5] | turbidity threshold (L, M, H) 7.4 [5] |
| --- | --- | --- | --- | --- | --- | --- | --- | --- | --- | --- | --- |
| – | O=C(c1c(F)ccc(NS(=O)(=O)c2ccc(C(F)(F)F)cc2)c1F)c1c[nH]c2ncnc(N3CCOCC3)c12 [P-1017, N-[2,4-Difluoro-3-(4-morpholin-4-yl-7H-pyrrolo[2,3-d]pyrimidine-5-carbonyl)-phenyl]-4-trifluoromethyl-benzenesulfonamide] | > 0.1 | 0.1-10 | 0.1-10 | > 0.1 | >10 | > 0.1 | – | – | – | – |
| – | COc1ccc(S(=O)(=O)Nc2ccc(F)c(C(=O)c3c[nH]c4ncnc(OC)c34)c2F)cn1 [P-1018, 6-Methoxy-pyridine-3-sulfonic acid [2,4-difluoro-3-(4-methoxy-7H-pyrrolo[2,3-d]pyrimidine-5-carbonyl)-phenyl]-amide] | > 0.1 | >10 | >10 | > 0.1 | 0.1-10 | > 0.1 | – | – | – | – |
| – | CCc1ccc(S(=O)(=O)Nc2ccc(F)c(C(=O)c3c[nH]c4ncnc(C)c34)c2F)cc1 [P-1019, N-[2,4-Difluoro-3-(4-methyl-7H-pyrrolo[2,3-d]pyrimidine-5-carbonyl)-phenyl]-4-ethyl-benzenesulfonamide] | > 0.1 | 0.1-10 | 0.1-10 | > 0.1 | 0.1-10 | > 0.1 | – | – | – | – |
| – | O=C(c1c(F)ccc(NS(=O)(=O)c2ccc(C(F)(F)F)cc2)c1F)c1c[nH]c2ncnc(OC3CCOCC3)c12 [P-1021, N-{2,4-Difluoro-3-[4-(tetrahydro-pyran-4-yloxy)-7H-pyrrolo[2,3-d]pyrimidine-5-carbonyl]-phenyl}-4-trifluoromethyl-benzenesulfonamide] | > 0.1 | 0.1-10 | >10 | > 0.1 | >10 | < 0.1 | – | – | – | – |
| – | CCCS(=O)(=O)Nc1ccc(F)c(C(=O)c2c[nH]c3ncnc(O)c23)c1F [P-1022, Propane-1-sulfonic acid [2,4-difluoro-3-(4-hydroxy-7H-pyrrolo[2,3-d]pyrimidine-5-carbonyl)-phenyl]-amide] | > 0.1 | 0.1-10 | 0.1-10 | > 0.1 | 0.1-10 | < 0.1 | – | – | – | – |
| – | N#Cc1ncnc2[nH]cc(C(=O)c3c(F)ccc(NS(=O)(=O)c4ccc(C(F)(F)F)cc4)c3F)c12 [P-1023, N-[3-(4-Cyano-7H-pyrrolo[2,3-d]pyrimidine-5-carbonyl)-2,4-difluoro-phenyl]-4-trifluoromethyl-benzenesulfonamide] | > 0.1 | 0.1-10 | 0.1-10 | > 0.1 | >10 | > 0.1 | – | – | – | – |
| – | COc1ccc(S(=O)(=O)Nc2ccc(F)c(C(=O)c3c[nH]c4ncnc(C)c34)c2F)cc1F [P-1036, N-[2,4-Difluoro-3-(4-methyl-7H-pyrrolo[2,3-d]pyrimidine-5-carbonyl)-phenyl]-3-fluoro-4-methoxy-benzenesulfonamide] | > 0.1 | >10 | >10 | < 0.1 | 0.1-10 | < 0.1 | – | – | – | – |
| > 10000 | CCCS(=O)(=O)Nc1ccc(F)c(C(=O)c2c[nH]c3nccc(NC4CCOCC4)c23)c1F [P-2013, Propane-1-sulfonic acid {2,4-difluoro-3-[4-(tetrahydro-pyran-4-ylamino)-1H-pyrrolo[2,3-b]pyridine-3-carbonyl]-phenyl}-amide] | – | – | – | < 0.1 | – | < 0.1 | H (high solubility if the threshold concentration is >250 μm) | H (high solubility if the threshold concentration is >250 μm) | H (high solubility if the threshold concentration is >250 μm) | H (high solubility if the threshold concentration is >250 μm) |
| – | O=C(c1c(F)ccc(NS(=O)(=O)c2ccc(C(F)(F)F)cc2)c1F)c1c[nH]c2nccc(NC3CCOCC3)c12 [P-2014, N-{2,4-Difluoro-3-[4-(tetrahydro-pyran-4-ylamino)-1H-pyrrolo[2,3-b]pyridine-3-carbonyl]-phenyl}-4-trifluoromethyl-benzenesulfonamide] | > 0.1 | 0.1-10 | 0.1-10 | > 0.1 | >10 | < 0.1 | L (low solubility if the threshold concentration is <31.3 μM) | L (low solubility if the threshold concentration is <31.3 μM) | L (low solubility if the threshold concentration is <31.3 μM) | L (low solubility if the threshold concentration is <31.3 μM) |
| > 10000 | CCCS(=O)(=O)Nc1ccc(F)c(C(=O)c2c[nH]c3nccc(C(F)(F)F)c23)c1F [P-2015, Propane-1-sulfonic acid [2,4-difluoro-3-(4-trifluoromethyl-1H-pyrrolo[2,3-b]pyridine-3-carbonyl)-phenyl]-amide] | – | – | – | – | – | < 0.1 | M (moderate solubility if the threshold concentration is 31.3 μM to 250 μM) | M (moderate solubility if the threshold concentration is 31.3 μM to 250 μM) | M (moderate solubility if the threshold concentration is 31.3 μM to 250 μM) | M (moderate solubility if the threshold concentration is 31.3 μM to 250 μM) |
| – | O=C(c1c(F)ccc(NS(=O)(=O)c2ccc(C(F)(F)F)cc2)c1F)c1c[nH]c2nccc(C(F)(F)F)c12 [P-2016, N-[2,4-Difluoro-3-(4-trifluoromethyl-1H-pyrrolo[2,3-b]pyridine-3-carbonyl)-phenyl]-4-trifluoromethyl-benzenesulfonamide] | > 0.1 | 0.1-10 | 0.1-10 | > 0.1 | >10 | < 0.1 | L (low solubility if the threshold concentration is <31.3 μM) | L (low solubility if the threshold concentration is <31.3 μM) | L (low solubility if the threshold concentration is <31.3 μM) | M (moderate solubility if the threshold concentration is 31.3 μM to 250 μM) |
